In publication PMC7412065, “In Vitro Antimicrobial and Antiproliferative Activities of the Root Bark Extract and Isolated Chemical Constituents of Zanthoxylum paracanthum Kokwaro (Rutaceae)” (Plants, 2020):
≈ marks a conversion by molar mass, not a printed value. Where two headings read alike, the source gives them in different places.

Assays:
[1] = test system: methicillin resistant Staphylococcus aureus (MRSA), un-typed isolate; experiment: Broth dilution MIC against MRSA; assay type: cell-based; conditions: for Antimicrobial minimal inhibition concentration (MIC), MRSA / MIC: 24 h; for MIC: Staphylococcus aureus, MRSA, read-out: Antimicrobial minimal inhibition concentration (MIC), MRSA; for Growth inhibition of MRSA (in words): up to 1000 µg/mL
[2] = test system: Staphylococcus aureus (ATCC 29213); experiment: Broth dilution MIC against S. aureus; assay type: cell-based; conditions: for MIC: Staphylococcus aureus, ATCC29213, 24 h, read-out: Antimicrobial minimal inhibition concentration (MIC), S. aureus
[3] = test system: Escherichia coli (ATCC 25922); experiment: Broth dilution MIC against E. coli; assay type: cell-based; conditions: for MIC: Escherichia coli, read-out: Antimicrobial minimal inhibition concentration (MIC), E. coli
[4] = test system: Candida albicans (ATCC 10231); experiment: Broth dilution MIC against C. albicans; assay type: cell-based; conditions: for MIC: Candida albicans, read-out: Antimicrobial minimal inhibition concentration (MIC), C. albicans; for Growth inhibition of C. albicans (in words): up to 1000 µg/mL
[5] = test system: human breast cancer cell line (HCC 1395); experiment: MTT antiproliferative assay, breast cancer cells; assay type: cell-based; conditions: for IC50: Homo sapiens; for Selectivity Indexes HCC 1395: SI = CC50 (Vero E6) / IC50 (HCC 1395)
[6] = test system: human prostate cancer cell line (DU 145); experiment: MTT antiproliferative assay, prostate cancer cells; assay type: cell-based; conditions: for IC50: Homo sapiens; for Selectivity Indexes DU 145: SI = CC50 (Vero E6) / IC50 (DU 145)
[7] = MTT cytotoxicity assay, normal cell line; conditions: African green monkey
in vitro = conditions: African green monkey
Clostridium sporogenes = test system: Clostridium sporogenes; design: method as in PMID 25546028; conditions: cited from earlier work
Streptococcus pyogenes = test system: Streptococcus pyogenes; design: method as in PMID 25546028; conditions: cited from earlier work
MRSA = test system: MRSA; design: method as in PMID 22864735; conditions: compound isolated from Zanthoxylum rhetsa roots; cited from earlier work
E. coli = test system: E. coli; design: method as in PMID 22864735; conditions: compound isolated from Zanthoxylum rhetsa roots; cited from earlier work
[8] = ATCC 29213, broth two-fold dilution, 37 °C, 24 h
[9] = ATCC25922, ATCC 25922, broth two-fold dilution, 37 °C, 24 h
[10] = ATCC10231, ATCC 10231, broth two-fold dilution, 30 °C, 72 h
[11] = HCC1395, MTT assay, Mean ± SEM, triplicate, read-out: IC50 Cancerous Cell Lines HCC 1395
[12] = DU-145, MTT assay, Mean ± SEM, triplicate, read-out: IC50 Cancerous Cell Lines DU 145
[13] = Vero E6 cells (normal cell line)

Compound | Antimicrobial minimal inhibition concentration (MIC), MRSA ([1]; broth two-fold dilution, 37 °C) [µg/mL] | MIC ([1]; broth two-fold dilution, 37 °C) [µg/mL] | MIC [2, 8] [µg/mL] | MIC [3, 9] [µg/mL] | MIC [4, 10] [µg/mL] | IC50 [5, 11] [µg/mL] | Selectivity Indexes HCC 1395 [5] | IC50 [6, 12] [µg/mL] | Selectivity Indexes DU 145 [6] | CC50 at 48 h [7, 13] [µg/mL] | also measured
Omacilin [reference compound] | 0.98 |  |  |  |  |  |  |  |  |  | Antimicrobial minimal inhibition concentration (MIC), S. aureus [2, 8]: 0.49 µg/mL; Antimicrobial minimal inhibition concentration (MIC), E. coli ([3]; ATCC 25922, broth two-fold dilution, 37 °C, 24 h): 0.98 µg/mL
O=c1ccc2nccc3c4ccccc4n1c23 [canthin-6-one (7), canthin-6-one] | 0.98 | 0.97 (≈ 4.4 µM) | 0.48 (≈ 2.18 µM) | 1.95 (≈ 8.85 µM) | 3.91 (≈ 17.8 µM) | 8.12 ± 0.6 (≈ 36.9 µM) | 5.15 | 9.43 ± 0.01 (≈ 42.8 µM) | 4.43 | 41.8 ± 0.64 (≈ 190 µM) | Antimicrobial minimal inhibition concentration (MIC), S. aureus [2, 8]: 0.49 µg/mL
CC[C@H](/C=C/[C@@H](C)[C@H]1CC[C@H]2[C@@H]3CC=C4C[C@@H](O)CC[C@]4(C)[C@H]3CC[C@]12C)C(C)C [stigmasterol (2), stigmasterol] |  |  |  |  |  |  | 294.94 |  | 0.88 |  | MIC [1]: > 1000 µg/mL; Growth inhibition of MRSA (in words) [1]: did not inhibit the growth; MIC [2]: 62.5 µg/mL (≈ 151 µM); MIC ([3]; ATCC25922, 24 h): 15.6 µg/mL (≈ 37.9 µM); MIC ([4]; ATCC10231, 72 h): > 1000 µg/mL; Growth inhibition of C. albicans (in words) [4]: did not inhibit the growth; IC50 ([5]; HCC1395, read-out: IC50 Cancerous Cell Lines HCC 1395): 0.42 ± 0.1 µg/mL (≈ 1.02 µM); IC50 ([6]; DU-145, read-out: IC50 Cancerous Cell Lines DU 145): 140.5 ± 1.27 µg/mL (≈ 340 µM); CC50 at 48 h [7]: 124 µg/mL (≈ 300 µM)
COc1cccc2c1C(=O)c1c(O)c3c(c(O)c1C2=O)C[C@@](O)(C(=O)CO)C[C@@H]3O[C@H]1C[C@H](N)[C@H](O)[C@H](C)O1 [Doxorubicin, reference compound] |  |  |  |  |  | 0.21 ± 0.2 (≈ 0.386 µM) | 1.41 | 0.59 ± 0.01 (≈ 1.09 µM) | 0.51 |  | CC50 at 48 h (in vitro): 0.3 ± 0.12 µg/mL (≈ 0.552 µM)
c1cc2c(cc1[C@H]1OC[C@H]3[C@@H]1CO[C@@H]3c1ccc3c(c1)OCO3)OCO2 [sesamin (3), sesamin] |  | > 1000 | 500 (≈ 1410 µM) | > 1000 | > 1000 | 3.39 ± 1 (≈ 9.57 µM) | 39.97 | 115.06 ± 0.03 (≈ 325 µM) | 1.18 |  | Growth inhibition of MRSA (in words) [1]: no activity; Growth inhibition of E. coli (in words) ([3]; up to 1000 µg/mL): no activity; Growth inhibition of C. albicans (in words) [4]: no activity; CC50 at 48 h (in vitro): 135.31 ± 0.12 µg/mL (≈ 382 µM)
OC(Cn1cncn1)(Cn1cncn1)c1ccc(F)cc1F [Fluconazole, reference compound] |  |  |  |  | 1.95 (≈ 6.37 µM) |  |  |  |  |  | 
COc1ccc2c(c1OC)c(=O)n(C)c1c3cc4c(cc3ccc21)OCO4 [8-oxochelerythrine (8), 8-oxochelerythrine] | 62.50 | 62.5 (≈ 172 µM) |  | 3.91 (≈ 10.8 µM) | 15.6 (≈ 43 µM) | 14.1 ± 0.3 (≈ 38.8 µM) | 9.60 | 63.4 ± 1.1 (≈ 175 µM) | 2.13 | 135.32 ± 0.12 (≈ 372 µM) | MIC against Clostridium sporogenes (Clostridium sporogenes): 0.91 µM (≈ 0.331 µg/mL); MIC against Streptococcus pyogenes (Streptococcus pyogenes): 3.64 µM (≈ 1.32 µg/mL)
COc1ccc2c(c1)c1ccnc3ccc(=O)n2c31 [10-methoxycanthin-6-one (6), 10-methoxycanthin-6-one] |  | 3.91 (≈ 15.6 µM) | 1.95 (≈ 7.79 µM) | 3.91 (≈ 15.6 µM) | 7.81 (≈ 31.2 µM) | 14.7 ± 0.5 (≈ 58.7 µM) | 3.67 | 1.58 (≈ 6.31 µM) | 34.15 | 53.95 ± 0.38 (≈ 216 µM) | 
COc1ccc2c(c1OC)C(CC(C)=O)N(C)c1c-2ccc2cc3c(cc12)OCO3 (centres unmarked) [8-acetonyldihydrochelerythrine (4), 8-acetonyldihydrochelerythrine] |  |  | 15.6 (≈ 38.5 µM) | 15.6 (≈ 38.5 µM) | 62.5 (≈ 154 µM) | 9.99 ± 0.6 (≈ 24.6 µM) | 4.79 | 66.82 ± 0.58 (≈ 165 µM) | 0.72 |  | MIC [1]: 31.2 µg/mL (≈ 77.1 µM); MIC against MRSA (MRSA): 8 µg/mL (≈ 19.7 µM); MIC against E. coli (E. coli): 16 µg/mL (≈ 39.5 µM); CC50 at 48 h [7]: 47.8 ± 1.15 µg/mL (≈ 118 µM)
CCCCCCCCCCCCCC(=O)O [myristic acid (1), myristic acid] |  | > 1000 | > 1000 | > 1000 | > 1000 | 57.7 ± 1.2 (≈ 253 µM) | 1.12 | 80.24 ± 0.12 (≈ 351 µM) | 0.81 | 64.86 ± 0.51 (≈ 284 µM) | 
